Assay results published in patent US20220153745A1, “DISUBSTITUTED BENZOTHIENYL-PYRROLOTRIAZINES AND THEIR USE AS FGFR KINASE INHIBITORS” (Bayer Intellectual Property GmbH, priority 2011, published 2022).
Structures can show the parent of a compound that is named as a salt.

Key:
FGFR-1 = target: T1, FGFR-1 (Homo sapiens, UniProt P11362); assay: FGFR-1 high ATP kinase assay (TR-FRET); assay type: biochemical; conditions: 2 mM ATP, 15 min pre-incubation; compounds of the invention (Table 1A)
T1 construct: human FGFR-1 from amino acids G400 to R800 as in GenBank entry NM_015850; purchased Proqinase 0101-0000-1; host or cells: SF9 insect cells (baculovirus)

FGFR-3 = target: T2, FGFR-3 (Homo sapiens, UniProt P22607); assay: FGFR-3 kinase assay (TR-FRET); assay type: biochemical; conditions: 10 μM ATP, 15 min pre-incubation; compounds of the invention (Table 2A)
T2 construct: human FGFR-3 from amino acids R397 to T806 as in NCBI/Protein entry NP_000133.1; purchased Proqinase 1068-0000-1; host or cells: SF9 insect cells (baculovirus)

mTOR = target: T3, mTOR (Homo sapiens, UniProt P42345); assay: mTOR kinase assay (TR-FRET, for comparative purposes); assay type: biochemical; conditions: read-out: mTOR % inhibition @ 1 μM, mean inhibition at 1 μM test compound, 40 μM ATP
T3 construct: human mTOR amino acids from 1360 to 2549; purchased Invitrogen 4753; host or cells: insect cells

[1] = test system: Human umbilical vein endothelial cells (HUVEC); assay: Inhibition of hFGF-2 mediated HUVEC proliferation; assay type: cell-based; conditions: 72 h

T1 sequence (P11362 402-822): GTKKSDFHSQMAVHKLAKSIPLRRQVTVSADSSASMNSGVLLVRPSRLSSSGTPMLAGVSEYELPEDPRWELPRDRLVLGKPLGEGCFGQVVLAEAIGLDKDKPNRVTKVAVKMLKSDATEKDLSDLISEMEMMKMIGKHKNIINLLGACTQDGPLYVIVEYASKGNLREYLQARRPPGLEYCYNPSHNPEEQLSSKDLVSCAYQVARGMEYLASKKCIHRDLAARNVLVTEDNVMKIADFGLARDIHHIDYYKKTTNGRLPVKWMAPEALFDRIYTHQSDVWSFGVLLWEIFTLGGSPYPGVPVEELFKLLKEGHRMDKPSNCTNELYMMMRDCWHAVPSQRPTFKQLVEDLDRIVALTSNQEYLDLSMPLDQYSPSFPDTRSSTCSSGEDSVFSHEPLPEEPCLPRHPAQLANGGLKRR
T3 sequence (P42345 1360-2549): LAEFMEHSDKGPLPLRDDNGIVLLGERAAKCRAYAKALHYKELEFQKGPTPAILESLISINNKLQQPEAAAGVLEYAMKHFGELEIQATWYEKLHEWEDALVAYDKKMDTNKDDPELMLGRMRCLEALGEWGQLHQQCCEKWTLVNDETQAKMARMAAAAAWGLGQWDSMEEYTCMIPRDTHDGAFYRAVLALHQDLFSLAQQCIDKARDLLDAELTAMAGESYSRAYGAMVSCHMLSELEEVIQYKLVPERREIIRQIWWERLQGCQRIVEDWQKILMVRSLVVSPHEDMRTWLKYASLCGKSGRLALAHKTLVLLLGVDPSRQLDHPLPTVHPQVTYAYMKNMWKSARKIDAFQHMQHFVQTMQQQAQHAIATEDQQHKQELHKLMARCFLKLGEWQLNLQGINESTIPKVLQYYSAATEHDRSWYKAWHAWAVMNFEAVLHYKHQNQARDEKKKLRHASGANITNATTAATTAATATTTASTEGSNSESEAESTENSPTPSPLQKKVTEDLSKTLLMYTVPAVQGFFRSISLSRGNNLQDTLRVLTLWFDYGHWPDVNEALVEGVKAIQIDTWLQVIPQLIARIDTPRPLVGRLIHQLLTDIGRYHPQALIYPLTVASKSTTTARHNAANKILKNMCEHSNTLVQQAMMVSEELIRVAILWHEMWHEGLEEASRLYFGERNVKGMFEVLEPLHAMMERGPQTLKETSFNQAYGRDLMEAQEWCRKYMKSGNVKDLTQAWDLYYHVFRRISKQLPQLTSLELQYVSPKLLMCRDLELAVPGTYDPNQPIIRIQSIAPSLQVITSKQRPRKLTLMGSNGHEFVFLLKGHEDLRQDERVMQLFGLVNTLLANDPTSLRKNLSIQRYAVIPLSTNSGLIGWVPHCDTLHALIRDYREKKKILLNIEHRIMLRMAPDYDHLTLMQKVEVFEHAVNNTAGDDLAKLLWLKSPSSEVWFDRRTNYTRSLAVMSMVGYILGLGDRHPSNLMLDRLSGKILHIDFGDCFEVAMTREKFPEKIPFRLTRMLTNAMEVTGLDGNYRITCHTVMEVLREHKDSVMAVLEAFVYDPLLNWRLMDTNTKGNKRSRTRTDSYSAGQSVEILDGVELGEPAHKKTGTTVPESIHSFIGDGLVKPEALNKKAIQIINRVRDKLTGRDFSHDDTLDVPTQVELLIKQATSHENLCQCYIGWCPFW
T2 sequence (P22607 397-806): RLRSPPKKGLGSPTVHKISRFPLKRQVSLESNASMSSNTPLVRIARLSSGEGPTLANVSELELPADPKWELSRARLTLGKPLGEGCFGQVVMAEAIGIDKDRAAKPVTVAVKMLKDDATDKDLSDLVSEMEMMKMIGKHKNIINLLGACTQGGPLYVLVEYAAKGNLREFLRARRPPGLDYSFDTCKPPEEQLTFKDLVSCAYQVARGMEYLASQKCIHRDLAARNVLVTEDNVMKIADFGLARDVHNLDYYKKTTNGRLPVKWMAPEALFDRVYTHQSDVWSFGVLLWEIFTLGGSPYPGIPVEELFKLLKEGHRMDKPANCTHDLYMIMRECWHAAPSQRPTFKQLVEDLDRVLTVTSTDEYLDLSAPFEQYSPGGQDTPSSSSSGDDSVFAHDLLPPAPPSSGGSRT

Compound | IC50 (FGFR-1) | IC50 (FGFR-3) | inhibition at 1 µM (mTOR) | IC50 [1]
COc1cc(C)cc2cc(-c3c(CNCCO)c(CN4CCNCC4)n4ncnc(N)c34)sc12 [Example 39, 2-({[4-Amino-5-(7-methoxy-5-methyl-1-benzothiophen-2-yl)-7-(piperazin-1-ylmethyl)pyrrolo[2,1-f]-[1,2,4]triazin-6-yl]methyl}amino)ethanol trihydrochloride] | 1.1 nM | 4.9 nM | 11.5% | 
COCc1c(-c2cc3cc(C)cc(OC)c3s2)c2c(N)ncnn2c1CN1CC[C@](C)(N)C1 [Example 14, 7-{[(3S)-3-Amino-3-methylpyrrolidin-1-yl]methyl}-6-(methoxymethyl)-5-(7-methoxy-5-methyl-1-benzothiophen-2-yl)pyrrolo[2,1-f][1,2,4]triazin-4-amine trihydrochloride] |  | 2.5 nM | 15.7% | 
COc1cc(C)cc2cc(-c3c(COCCO)c(CN4CCNCC4)n4ncnc(N)c34)sc12 [Example 22, 2-{[4-Amino-5-(7-methoxy-5-methyl-1-benzothiophen-2-yl)-7-(piperazin-1-ylmethyl)pyrrolo[2,1-f]-[1,2,4]triazin-6-yl]methoxy}ethanol dihydrochloride] | 0.9 nM | 4.7 nM | 17.6% | 
COc1cc(C)cc2cc(-c3c(CNC4CC4)c(CN4CCNCC4)n4ncnc(N)c34)sc12 [Example 46, 6-[(Cyclopropylamino)methyl]-5-(7-methoxy-5-methyl-1-benzothiophen-2-yl)-7-(piperazin-1-ylmethyl)pyrrolo[2,1-f][1,2,4]triazin-4-amine trihydrochloride] | 3.2 nM | 8.1 nM | 11% | 
COc1cc(C)cc2cc(-c3c(CNC4CCC4)c(CN4CCNCC4)n4ncnc(N)c34)sc12 [Example 44, 6-[(Cyclobutylamino)methyl]-5-(7-methoxy-5-methyl-1-benzothiophen-2-yl)-7-(piperazin-1-ylmethyl)pyrrolo[2,1-f][1,2,4]triazin-4-amine trihydrochloride] | 2.1 nM |  | 13.3% | 
COc1cc(C)cc2cc(-c3c(CN4CCCC4)c(CN4CCNCC4)n4ncnc(N)c34)sc12 [Example 45, 5-(7-Methoxy-5-methyl-1-benzothiophen-2-yl)-7-(piperazin-1-ylmethyl)-6-(pyrrolidin-1-ylmethyl)pyrrolo[2,1-f][1,2,4]triazin-4-amine trihydrochloride] | 3.4 nM | 9.7 nM | 15.5% | 
COc1cc(C)cc2cc(-c3c(CNC(C)=O)c(CN4CCNCC4)n4ncnc(N)c34)sc12 [Example 64, N-{[4-Amino-5-(7-methoxy-5-methyl-1-benzothiophen-2-yl)-7-(piperazin-1-ylmethyl)pyrrolo[2,1-f][1,2,4]triazin-6-yl]methyl}acetamide dihydrochloride] | 1 nM | 2.9 nM | 1.1% | 
COCc1c(-c2cc3cc(C)cc(OC)c3s2)c2c(N)ncnn2c1CN1CCN(C(C)=O)CC1 [Example 16, 1-(4-{[4-Amino-6-(methoxymethyl)-5-(7-methoxy-5-methyl-1-benzothiophen-2-yl)pyrrolo[2,1-f]-[1,2,4]triazin-7-yl]methyl}piperazin-1-yl)ethanone dihydrochloride] |  | 9.4 nM | 36.9% | 
COc1cc(C)cc2cc(-c3c(CNCC4CC4)c(CN4CCNCC4)n4ncnc(N)c34)sc12 [Example 47, 6-{[(Cyclopropylmethyl)amino]methyl}-5-(7-methoxy-5-methyl-1-benzothiophen-2-yl)-7-(piperazin-1-ylmethyl)pyrrolo[2,1-f][1,2,4]triazin-4-amine trihydrochloride] | 1.7 nM | 3.4 nM | 14.7% | 
COc1cc(C)cc2cc(-c3c(CNCC(C)(C)O)c(CN4CCOCC4)n4ncnc(N)c34)sc12 [Example 54, 1-({[4-Amino-5-(7-methoxy-5-methyl-1-benzothiophen-2-yl)-7-(morpholin-4-ylmethyl)pyrrolo[2,1-f][1,2,4]triazin-6-yl]methyl}amino)-2-methylpropan-2-ol] |  |  | 1.7% | 2.2 nM
COc1cc(C)cc2cc(-c3c(CNC(C)=O)c(CNC(C)=O)n4ncnc(N)c34)sc12 [Example 72, N,N′-{[4-Amino-5-(7-methoxy-5-methyl-1-benzothiophen-2-yl)pyrrolo[2,1-f][1,2,4]triazine-6,7-diyl]bis(methylene)}diacetamide] |  |  | 8.2% | 1.6 nM
COc1cc(C)cc2cc(-c3c(CNCC(C)(C)O)c(Cl)n4ncnc(N)c34)sc12 [Example 81, 1-({[4-Amino-7-chloro-5-(7-methoxy-5-methyl-1-benzothiophen-2-yl)pyrrolo[2,1-f][1,2,4]triazin-6-yl]methyl}amino)-2-methylpropan-2-ol formiate] |  |  | 4.1% | 1.6 nM
COc1cc(C)cc2cc(-c3c(CN[C@H]4CCNC4=O)c(CN4CCOCC4)n4ncnc(N)c34)sc12 [Example 51, (3S)-3-({[4-Amino-5-(7-methoxy-5-methyl-1-benzothiophen-2-yl)-7-(morpholin-4-ylmethyl)pyrrolo[2,1-f][1,2,4]triazin-6-yl]methyl}amino)pyrrolidin-2-one] |  |  | 8.4% | 1.2 nM
CCOCc1c(-c2cc3cc(C)cc(OC)c3s2)c2c(N)ncnn2c1CN1CCN(C(C)=O)CC1 [Example 11, 1-(4-{[4-Amino-6-(ethoxymethyl)-5-(7-methoxy-5-methyl-1-benzothiophen-2-yl)pyrrolo[2,1-f][1,2,4]triazin-7-yl]methyl}piperazin-1-yl)ethanone dihydrochloride] | 6.5 nM |  | 33.2% | 
CCNCc1c(-c2cc3cc(C)cc(OC)c3s2)c2c(N)ncnn2c1CN1CCNCC1 [Example 38, 6-[(Ethylamino)methyl]-5-(7-methoxy-5-methyl-1-benzothiophen-2-yl)-7-(piperazin-1-ylmethyl)pyrrolo[2,1-f][1,2,4]triazin-4-amine trihydrochloride] | 6.9 nM |  | 20.8% | 
COc1cc(C)cc2cc(-c3c(COCC(N)=O)c(CN4CCN(C(C)=O)CC4)n4ncnc(N)c34)sc12 [Example 34, 2-({7-[(4-Acetylpiperazin-1-yl)methyl]-4-amino-5-(7-methoxy-5-methyl-1-benzothiophen-2-yl)pyrrolo[2,1-f][1,2,4]triazin-6-yl}methoxy)acetamide] |  |  | 25.9% | 37.3 nM
COc1cc(C)cc2cc(-c3c(COCCN)c(CN4CCNCC4)n4ncnc(N)c34)sc12 [Example 30, 6-[(2-Aminoethoxy)methyl]-5-(7-methoxy-5-methyl-1-benzothiophen-2-yl)-7-(piperazin-1-ylmethyl)pyrrolo[2,1-f][1,2,4]triazin-4-amine trihydrochloride] | 2.8 nM | 6.4 nM | 21.1% | 
COc1cc(C)cc2cc(-c3c(CO)c(C(C)(C)O)n4ncnc(N)c34)sc12 [Example 73, 2-[4-Amino-6-(hydroxymethyl)-5-(7-methoxy-5-methyl-1-benzothiophen-2-yl)pyrrolo[2,1-f][1,2,4]-triazin-7-yl]propan-2-ol] |  |  | 18.5% | 5.5 nM
COc1cc(C)cc2cc(-c3c(-c4cnco4)c(CN4CCNCC4)n4ncnc(N)c34)sc12 [Example 61, 5-(7-Methoxy-5-methyl-1-benzothiophen-2-yl)-6-(1,3-oxazol-5-yl)-7-(piperazin-1-ylmethyl)pyrrolo[2,1-f][1,2,4]triazin-4-amine trihydrochloride] |  | 0.9 nM | 15.9% | 
COc1cc(C)cc2cc(-c3c(CN)c(CN4CCNCC4)n4ncnc(N)c34)sc12 [Example 62, 6-(Aminomethyl)-5-(7-methoxy-5-methyl-1-benzothiophen-2-yl)-7-(piperazin-1-ylmethyl)pyrrolo[2,1-f][1,2,4]triazin-4-amine trihydrochloride] | 3.1 nM | 11 nM | 0.2% | 
